This note sets out measurements from patent US20240343747A1, “Heteroaryl compounds as inhibitors of TYK2, composition and application thereof” (Accro Bioscience (HK) Limited, priority 2021, published 2024).

Molecules are shown by their SMILES. pIC50: −log10 of the molar value.

Data set [1] can be described thus: Plasma protein binding test, rat. Format: in vitro ADME. The method, then:
• 1. Test compound and control compound were dissolved in dimethyl sulfoxide (DMSO) to achieve 10 mM stock solutions. DMSO working solutions were prepared at 400 μM. To prepare the loading matrix, compound working solutions (5 μL) were added in a 1:200 ratio to blank matrix (995 μL), and mixed thoroughly. • 2. To prepare the time zero (TO) samples to be used for recovery determination, 50 μL aliquots of loading matrix were transferred in triplicate to the sample collection plate. The samples were immediately matched with opposite blank buffer to obtain a final volume of 100 μL of 1:1 matrix/dialysis buffer (v/v) in each well. 500 μL of stop solution were added to these TO samples. They were then stored at 2-8° C. pending further processes along with other post-dialysis samples. • 3. To load the dialysis device, an aliquot of 150 μL of the loading matrix was transferred to the donor side of each dialysis well in triplicate, and 150 μL of the dialysis buffer was loaded to the receiver side of the well. The dialysis plate was placed in a humidified incubator at 37° C. with 5% CO2 on a shaking platform that rotated slowly (about 100 rpm) for 4 hours • 4. At the end of the dialysis, aliquots of 50 μL of samples were taken from both the buffer side and the matrix side of the dialysis device. […]
The % Unbound and % Bound were calculated using the following equations: […]

Data set [2] relates to production of CXCL-10 stimulated by IFNα in PBMC. Briefly: ELISA: production of CXCL-10 stimulated by IFNα in PBMC. The conditions noted are these: CXCL-10 production stimulated by IFNα in PBMC; for pIC50: ELISA. In kind it is cell-based. The method, then: • 1. Soak plate: Add 300 μL 1×washing solution and let stand for 30 seconds. After discarding the washing solution, dry the microporous plate on absorbent paper. • 2. Add standard: Add 100 μL of 2-fold standard to standard well. Add 100 μL standard dilution (serum/plasma sample) or culture medium (cell culture supernatant sample) to blank well. • 3. Add sample: Serum/plasma: Add 50 μL 1×assay buffer and 50 μL sample to sample well. Cell culture supernatant: Add 100 μL cell culture supernatant to sample well. • 4. Add detection antibody: Add 50 μL diluted detection antibody (1:100 diluted) to each well. Make sure steps 4, 5 and 6 are added continuously without interruption. The sampling process was completed within 15 minutes. • 5. Incubation: Use sealing plate film to seal the plate. shake at 300 rpm and incubate for 2 hours at room temperature. • 6. Washing: Discard the liquid, add 300 μL of washing solution and wash the plate 6 times. pat dry on blotting paper after each wash. To obtain the desired experimental performance, the residual liquid must be completely removed. • 7. Enzyme addition: Add 100 μL diluted horseradish peroxidase labeled streptavidin to each well (1:100 diluted). • 8. Incubation: Seal the plate with a new sealing film. shake at 300 rpm and incubate at room temperature for 45 minutes. • 9. Washing. Repeat step […]. • 10. Add substrate for color development: Add 100 μL of color development substrate TMB to each well, keep away from light, and incubate at room temperature for 5-30 minutes. • 11. Add Stop Solution: Add 100 μL stop solution to each well. The color changed from blue to yellow. If the color appears green or the color changes unevenly, gently tap the frame of the plate to mix well. • 12. Assay readout: Within 30 minutes, perform dual wavelength detection using a microplate reader to measure the OD at the absorption maximum at 450 nm and reference wavelengths at 570 nm or 630 nm. The calibrated OD value is the measured value at 450 nm minus the measured value at 570 nm or 630 nm.

The subject of the next data set is JAK2/JAK2 pathway. As to the kind of experiment: Selectivity: JAK2/JAK2 pathway, TPO-induced p-STAT3 in MEG-1 cells, western blot. The following applies: TPO 100 ng/mL. Format: cell-based. As for the experimental part:
MEG-1 cells were digested by trypsin, re-suspended in 1640 medium and counted. The compounds to be measured were added to 6 well plates (1 million/per well) for 2 hours, and then TPO (final concentration: 100 ng/mL) was added to stimulate cells for 30 minutes. The cells were collected and lysed with protein lysate. The protein was quantitatively tested by BCA kit. Finally, p-STAT3/STAT3 and internal reference protein β-actin were detected by western blot.

For the molecule `CCC(=O)c1cnc(NC(=O)C2CC2)cc1Nc1cccc(-c2cc(P(C)(C)=O)n(C)n2)c1OC` [Compound B2, N-(4-((3-(5-(dimethylphosphoryl)-1-methyl-1H-pyrazol-3-yl)-2-methoxyphenyl)amino)-5-propionylpyridin-2-yl)cyclopropanecarboxamide], in data set [1], the fraction unbound at 4 h, 2 μM was 0.055.

`CCC(=O)c1cnc(NC(=O)C2CC2)cc1Nc1cccc(-c2cc(P(=O)(C3CC3)C3CC3)n(C)n2)c1OC` [Compound B37, N-(4-((3-(5-(dicyclopropylphosphoryl)-1-methyl-1H-pyrazol-3-yl)-2-methoxyphenyl)amino)-5-propionylpyridin-2-yl)cyclopropanecarboxamide]: in data set [2], the “activity compared with BMS986165” value is given as “more active than BMS986165” and the pIC50 was 7.55. Also, in the data set on JAK2/JAK2 pathway, the “effect on TPO-induced downstream STAT3 phosphorylation” value was “no effect”.

Molecule `[2H]C([2H])([2H])NC(=O)c1nnc(NC(=O)C2CC2)cc1Nc1cccc(-c2cc(P(=O)(C3CC3)C3CC3)n(C)n2)c1OC` [Compound B41, 6-(cyclopropanecarboxamido)-4-((3-(5-(dicyclopropylphosphoryl)-1-methyl-1H-pyrazol-3-yl)-2-methoxyphenyl)amino)-N-(methyl-d3)pyridazine-3-carboxamide] had a fraction unbound at 4 h, 2 μM in data set [1] of 0.045. Also, the negative logarithm of the IC50 (pIC50) in data set [2] is 7.40. In addition, the “effect on TPO-induced downstream STAT3 phosphorylation” value with JAK2/JAK2 pathway is on record as “no effect”.
